Experimental data: ChEMBL document CHEMBL1137641, “Influence of inoculum size on the selection of resistant mutants of Escherichia coli in relation to mutant prevention concentrations of marbofloxacin” (2007)
≈ marks a conversion by molar mass, not a printed value.

Key:
Assay type in all cases: functional
Escherichia coli [1] = assay: Antibacterial activity against Escherichia coli ATCC 25922 by microdilution method
Escherichia coli [2] = assay: Bactericidal activity against marbofloxacin-susceptible Escherichia coli ATCC 25922 assessed as final bacterial count using inoculum size of 10^7 CFU/mL inside the mutant selection window for 100% of time
Escherichia coli [3] = assay: Bactericidal activity against marbofloxacin-susceptible Escherichia coli ATCC 25922 assessed as final bacterial count using inoculum size of 10^5 CFU/mL inside the mutant selection window for 100% of time
Escherichia coli [4] = assay: Bactericidal activity against marbofloxacin-resistant Escherichia coli ATCC 25922 assessed as final bacterial count using inoculum size of 10^7 CFU/mL inside the mutant selection window for 100% of time
[5] = T>MIC in Escherichia coli ATCC 25922 at time with in mutant selection window of 25%
Escherichia coli [6] = assay: Antibacterial activity against Escherichia coli ATCC 25922 assessed as mutant prevention concentration after 24 hrs by agar dilution method
Escherichia coli [7] = assay: Bactericidal activity against marbofloxacin-resistant Escherichia coli ATCC 25922 assessed as area between the control curve and time kill curve using inoculum size of 10^7 CFU/mL inside the mutant selection window for 100% of time
Escherichia coli [8] = assay: Bactericidal activity against marbofloxacin-susceptible Escherichia coli ATCC 25922 assessed as final bacterial count using inoculum size of 10^9CFU/mL inside the mutant selection window for 0% of time
[9] = T>MIC in Escherichia coli ATCC 25922 at time with in mutant selection window of 0%
Escherichia coli [10] = assay: Bactericidal activity against marbofloxacin-resistant Escherichia coli ATCC 25922 assessed as area between the control curve and time kill curve using inoculum size of 10^5 CFU/mL inside the mutant selection window for 100% of time
[11] = Effect on Escherichia coli ATCC 25922 assessed as time at which drug concentration above the mutant prevention concentration at time with in mutant selection window of 100%
Escherichia coli [12] = assay: Bactericidal activity against marbofloxacin-susceptible Escherichia coli ATCC 25922 assessed as final bacterial count using inoculum size of 10^9CFU/mL inside the mutant selection window for 25% of time
Escherichia coli [13] = assay: Bactericidal activity against marbofloxacin-susceptible Escherichia coli ATCC 25922 assessed as area between the control curve and time kill curve using inoculum size of 10^9 CFU/mL inside the mutant selection window for 25% of time
Escherichia coli [14] = assay: Bactericidal activity against marbofloxacin-susceptible Escherichia coli ATCC 25922 assessed as area between the control curve and time kill curve using inoculum size of 10^7 CFU/mL inside the mutant selection window for 0% of time
Escherichia coli [15] = assay: Bactericidal activity against marbofloxacin-susceptible Escherichia coli ATCC 25922 assessed as final bacterial count using inoculum size of 10^7 CFU/mL inside the mutant selection window for 25% of time
Escherichia coli [16] = assay: Bactericidal activity against marbofloxacin-susceptible Escherichia coli ATCC 25922 assessed as area between the control curve and time kill curve using inoculum size of 10^5 CFU/mL inside the mutant selection window for 100% of time
Escherichia coli [17] = assay: Bactericidal activity against marbofloxacin-resistant Escherichia coli ATCC 25922 assessed as final bacterial count using inoculum size of 10^9 CFU/mL inside the mutant selection window for 100% of time
Escherichia coli [18] = assay: Bactericidal activity against marbofloxacin-susceptible Escherichia coli ATCC 25922 assessed as area between the control curve and time kill curve using inoculum size of 10^5 CFU/mL inside the mutant selection window for 0% of time
Escherichia coli [19] = assay: Bactericidal activity against marbofloxacin-resistant Escherichia coli ATCC 25922 assessed as area between the control curve and time kill curve using inoculum size of 10^9 CFU/mL inside the mutant selection window for 100% of time
Escherichia coli [20] = assay: Bactericidal activity against marbofloxacin-susceptible Escherichia coli ATCC 25922 assessed as final bacterial count using inoculum size of 10^5 CFU/mL inside the mutant selection window for 25% of time
Escherichia coli [21] = assay: Bactericidal activity against marbofloxacin-susceptible Escherichia coli ATCC 25922 assessed as area between the control curve and time kill curve using inoculum size of 10^5 CFU/mL inside the mutant selection window for 25% of time
Escherichia coli [22] = assay: Bactericidal activity against marbofloxacin-resistant Escherichia coli ATCC 25922 assessed as final bacterial count using inoculum size of 10^5 CFU/mL inside the mutant selection window for 100% of time
Escherichia coli [23] = assay: Bactericidal activity against marbofloxacin-susceptible Escherichia coli ATCC 25922 assessed as final bacterial count using inoculum size of 10^7 CFU/mL inside the mutant selection window for 0% of time
Escherichia coli [24] = assay: Bactericidal activity against marbofloxacin-susceptible Escherichia coli ATCC 25922 assessed as area between the control curve and time kill curve using inoculum size of 10^7 CFU/mL inside the mutant selection window for 100% of time
Escherichia coli [25] = assay: Bactericidal activity against marbofloxacin-susceptible Escherichia coli ATCC 25922 assessed as final bacterial count using inoculum size of 10^5 CFU/mL inside the mutant selection window for 0% of time
Escherichia coli [26] = assay: Bactericidal activity against marbofloxacin-susceptible Escherichia coli ATCC 25922 assessed as area between the control curve and time kill curve using inoculum size of 10^9 CFU/mL inside the mutant selection window for 0% of time
[27] = Effect on Escherichia coli ATCC 25922 assessed as time at which drug concentration above the mutant prevention concentration at time with in mutant selection window of 25%
[28] = T>MIC in Escherichia coli ATCC 25922 at time with in mutant selection window of 100%
Escherichia coli [29] = assay: Bactericidal activity against marbofloxacin-susceptible Escherichia coli ATCC 25922 assessed as area between the control curve and time kill curve using inoculum size of 10^7 CFU/mL inside the mutant selection window for 25% of time
[30] = Effect on Escherichia coli ATCC 25922 assessed as time at which drug concentration above the mutant prevention concentration at time with in mutant selection window of 0%

With `CN1CCN(c2c(F)cc3c(=O)c(C(=O)O)cn4c3c2OCN4C)CC1` [MARBOFLOXACIN] as the molecule, how does the MIC (Escherichia coli [1]) read?
Its MIC is 8 ng/mL (≈ 0.0221 µM).

And the CFU (Escherichia coli [2])?
The CFU was 7 ×10⁴ /ml.

What about the CFU (Escherichia coli [3]) of the same molecule?
Its CFU is 2 ×10⁶ /ml.

What about the CFU (Escherichia coli [4]) of the same molecule?
Its CFU is 6 ×10⁸ /ml.

And the T>MIC [5]?
The T>MIC was 100%.

What about the Activity (Escherichia coli [6]) of the same molecule?
Its Activity is 0.256 µg/mL.

And the ABBC (Escherichia coli [7])?
The ABBC was 56 log10CFU/ml/hr.

And the CFU (Escherichia coli [8])?
The CFU was 1 ×10⁴ /ml.

And the T>MIC [9]?
The T>MIC was 100%.

What about the ABBC (Escherichia coli [10]) of the same molecule?
The ABBC was 51 log10CFU/ml/hr.

What about the Activity [11] of the same molecule?
Its Activity is 0%.

And the CFU (Escherichia coli [12])?
Its CFU is 3 ×10⁴ /ml.

What about the ABBC (Escherichia coli [13]) of the same molecule?
Its ABBC is 53 log10CFU/ml/hr.

What about the ABBC (Escherichia coli [14]) of the same molecule?
The ABBC was 57 log10CFU/ml/hr.

What about the CFU (Escherichia coli [15]) of the same molecule?
Its CFU is 8 ×10⁴ /ml.

What about the ABBC (Escherichia coli [16]) of the same molecule?
The ABBC was 53 log10CFU/ml/hr.

And the CFU (Escherichia coli [17])?
The CFU was 5 ×10⁷ /ml.

What about the ABBC (Escherichia coli [18]) of the same molecule?
Its ABBC is 54 log10CFU/ml/hr.

And the ABBC (Escherichia coli [19])?
The ABBC was 44 log10CFU/ml/hr.

What about the CFU (Escherichia coli [20]) of the same molecule?
The CFU was 6 ×10⁴ /ml.

What about the ABBC (Escherichia coli [21]) of the same molecule?
The ABBC was 54 log10CFU/ml/hr.

And the CFU (Escherichia coli [22])?
The CFU was 1 ×10⁸ /ml.

And the CFU (Escherichia coli [23])?
Its CFU is 2 ×10⁴ /ml.

And the ABBC (Escherichia coli [24])?
Its ABBC is 60 log10CFU/ml/hr.

What about the CFU (Escherichia coli [25]) of the same molecule?
Its CFU is 7 ×10³ /ml.

What about the ABBC (Escherichia coli [26]) of the same molecule?
Its ABBC is 51 log10CFU/ml/hr.

What about the Activity [27] of the same molecule?
Its Activity is 75%.

And the T>MIC [28]?
The T>MIC was 100%.

And the ABBC (Escherichia coli [29])?
The ABBC was 56 log10CFU/ml/hr.

And the Activity [30]?
The Activity was 100%.
